According to patent US5112856A, “Therapeutic treatment of intestinal inflammation by administration of 3,4-dihydro-2H-1-benzopyran derivatives” (Hoffmann-La Roche Inc., priority 1990, dated 1992):

How the values were obtained:
guinea pig colon = assay: Carrageenan-induced colitis in guinea pigs, in vivo (water transport in distal colon); parameters: species or system Male/female guinea pigs (Hartley); conditions: oral
Description: The guinea pig carrageenan-induced colitis biossay has been described by A. B. Onderdonk in Inflammatory Bowel Diseases, Martinus Nijhoff Publ., Boston, Mass., pages 126-134 (1982), and in Human Intestinal Microflora in Health and Disease (D. J. Hentger, ed.), Academic Press, New York, 1983, pages 447-479. The polysaccharide iotacarrageenan, derived from red seaweed, produces a colitis in guinea pigs that resembles ulcerative colitis in humans. Male/female guinea pigs (Hartley), weighing 400 to 650 g, were given a 3% solution of degraded carrageenan in their drinking water on a daily basis. After about 7 days, the animals began to develop diarrhea, ceased to gain weight and became lethargic. After the animals received carrageenan in this manner for 14 days, the diarrhea was quantified by measuring the water transport in the distal colon by single pass perfusion using 14C-polyethylene glycol 4000 (PEG 4000) as a marker. Control animals were given an aqueous drinking solution containing 3% mannitol in place of the carrageenan. Simultaneously, randomly selected animals from each of these two groups were treated orally with the test inhibitor compound, twice daily. […]

LTB4 = assay: Rat colon mucosa in vitro, short-circuit current: LTB4-induced electrolyte secretion; conditions: six animals
Description: (§1) The rat colon mucosa bioassay system is based on the measurement of changes in salt transport across the animal tissue due to absorption or secretion, using the standard short-circuit current technique described by Ussing, et al., Acta Physiol. Scand. 23: 110-127 (1951). Diarrhea is the most common symptom of gastrointestinal inflammation and is present in all types of inflammatory bowel disease. Pantera, et al., Ital. J. Gastroenterol. 13: 24-27 (1981); Sales, et al., Arch. Int. Med. 143: 294-299 (1983); Hodgson, Br. J. Clin. Pharmac. 14: 159-270 (1982). Diarrhea results from decreases in the salt absorption or increases in the salt secretion in the bowel and can be quantified in vitro by the above mentioned method of Ussing et al. In particular, a one-cm segment of colon is removed from animals weighing 200 to 250 g, exposed in vitro to leukotrienes or to bradykinin, which are inducers of salt secretion, and the resulting change in the net salt transport with and without the presence of 6-acetyl-7-[5-(4-acetyl-3 -hydroxy-2-propylphenoxy) pentyloxy]-3,4-dihydro-2H-1-benzopyran-2-carboxylic acid as an inhibitor is measured. Tissues were mounted in pairs in Ussing chambers and short-circuited with automatic voltage clamps (from the University of Iowa Bioengineering Department). A 15-minute period of equilibrium was allowed for the preparation to reach steady state. […]

LTD4 = assay: Rat colon mucosa in vitro, short-circuit current: LTD4-induced electrolyte secretion; conditions: six animals
Description: as §1

[1] = system: myeloperoxidase of the rat colon; assay: Acetic acid-induced colitis in rats, in vivo (colonic myeloperoxidase); parameters: species or system Male rats (Sprague-Dawley); conditions: oral
Description: The rat acetic acid-induced colitis biossay has been described by J. E. Krawisz, et al. in Amer. J. Proc. Gastro. Col. Rec. Surg. 31: 11-18 (1980), and by P. Sharon and W. F. Stenson in Gastroenterology 88: 55-63 (1985) and 86: 453-460 (1984). Acetic acid-induced colitis is characterized by the movement of inflammatory cells into the colon, with the number of such cells in the mucosa being measured by the activity of myeloperoxidase, a marker enzyme for these cells. Positive desirable activity is indicated by a reduction in the high levels of myeloperoxidase caused by acetic acid. Male rats (Sprague-Dawley), weighing 150 to 300 g, were pretreated twice daily for two days with either the vehicle (water, or dimethylsulfoxide) or the test inhibitor compound suspended in water or dissolved in dimethylsulfoxide and orally administered. […] Twenty four hours after the acetic acid treatment, the animals were sacrificed, the colonic mucosa was surgically removed and homogenized in an aqueous buffer at pH 6 with a Tissumizer or similar device, and myeloperoxidase was measured in the homogenate using o-phenylenediamine as a chromagen, as described by A. Voller, D. E. Bidwell and A. Bartlett in The Enzyme Linked Immunosorbent Assay (ELISA), Zoological Soc., London, 1979, pages 29-30. […]

[2] = system: antibiotic-induced colitis; assay: Antibiotic (clindamycin)-induced colitis in hamsters, in vivo; parameters: species or system Male Syrian hamsters (LUG); conditions: for activity in clindamycin-induced colitis: oral
Experimental: Male Syrian hamsters (LUG), weighing 80 to 120 g, were each given a single dose of 175 mg/kg of clindamycin-phosphate or of clindamycin-hydrochlorideintraperitoneally, to induce colitis. Approximately seven hours after injection, the animals were given the test compound orally or intraperitoneally and the therapy was continued twice a day for a period of four more days. For oral administration, the […] was suspended in water or dissolved in dimethylsulfoxide and delivered to the animals by gavage using an oral intubating needle. The effect of the therapy was measured by use of the Hazard Ratio, which is the ratio of the mortality of the animals treated with the test inhibitor compound contained in a vehicle to the mortality of the animals treated with the vehicle containing none of the test inhibitor compound. The mortality was determined for the test inhibitor compound-treated groups and for the vehicle-treated groups, respectively, twice daily, and was evaluated by comparing the survival curves of each group. The Kaplan-Meier estimate of the survival curve was calculated for each group and the Mantel-Cox (logrank) test was used to compare the survival curve of each test inhibitor compound-treated (therapy) group to that of the corresponding vehicle control group. […]

LTE4 = assay: Rat colon mucosa in vitro, short-circuit current: LTE4-induced electrolyte secretion; conditions: six animals
Description: as §1

LTC4 = assay: Rat colon mucosa in vitro, short-circuit current: LTC4-induced electrolyte secretion; conditions: six animals
Description: as §1

[3] = 10 mg/kg oral, in 0.15 ml water, >1.0 = prolongs survival vs. vehicle

Compound: CCCc1c(OCCCCCOc2cc3c(cc2C(C)=O)CCC(C(=O)O)O3)ccc(C(C)=O)c1O (racemic) [6-acetyl-7-[5-(4-acetyl-3-hydroxy-2-propylphenoxy)pentyloxy]-3,4-dihydro-2H-1-benzopyran-2-carboxylic acid]
- water transport rate in the colon (guinea pig colon; 10 and 30 mg/kg, carrageenan-diseased animals (FIG. 5)): water transport rates about equal to that of the control animals
- % Inhibition Against Leukotrienes, LTB4 (LTB4; 1 μM inhibitor): 44.4 ± 13.1%
- % Inhibition Against Leukotrienes, LTB4 (LTB4; 10 μM inhibitor): 69.6 ± 11.9%
- % Inhibition Against Leukotrienes, LTD4 (LTD4; 1 μM inhibitor): 30.8 ± 15.4%
- % Inhibition Against Leukotrienes, LTD4 (LTD4; 10 μM inhibitor): 62.4 ± 10.0%
- activity in reducing myeloperoxidase of the rat colon ([1]; 30 and 90 mg/kg (FIG. 3)): active
- Hazard Ratio [2, 3]: 3.80
- Hazard Ratio ([2]; 60 mg/kg intraperitoneal, in 0.075 ml PEG400, >1.0 = prolongs survival vs. vehicle): 4.77
- Hazard Ratio ([2]; 60 mg/kg oral, in 0.15 ml water, >1.0 = prolongs survival vs. vehicle): 12.0
- Hazard Ratio ([2]; 100 mg/kg oral, in 0.15 ml water, >1.0 = prolongs survival vs. vehicle): 64.2
- edema, hemorrhaging, congestion, necrosis, focal erosions, inflammatory cell infiltration of cecum (and colon) ([2]; 60 or 100 mg/kg): In most cases these effects were reduced or abolished
- diarrhea ([2]; clindamycin-treated hamsters): reduced the diarrhea
- histopathology of the cecum and colon ([2]; clindamycin-treated hamsters): substantially benefited the histopathology of the cecum and colon
- survival of clindamycin-treated animals ([2]; clindamycin-treated hamsters): prolonging the survival
- Hazard Ratio ([2]; ip, 10 mg/kg): 2.87
- activity in clindamycin-induced colitis ([2]; doses ranging from 10 to 100 mg/kg): active
- % Inhibition Against Leukotrienes, LTE4 (LTE4; 1 μM inhibitor): 29.8 ± 15.0%
- % Inhibition Against Leukotrienes, LTE4 (LTE4; 10 μM inhibitor): 44.2 ± 9.8%
- % Inhibition Against Leukotrienes, LTC4 (LTC4; 1 μM inhibitor): 9.5 ± 19.2%
- % Inhibition Against Leukotrienes, LTC4 (LTC4; 10 μM inhibitor): 57.1 ± 19.7%

Compound: CCCc1c(OCC(O)COc2ccc3c(=O)cc(C(=O)O)oc3c2CCC)ccc(C(C)=O)c1O (stereo not drawn) [Comparison 1, 7-[3-(4-acetyl-3-hydroxy-2-propylphenoxy)-2-hydroxypropoxy]-4-oxo-8-propyl-4H-1-benzopyran-2-carboxylic acid, reference compound]
- Hazard Ratio [2, 3]: 1.42
- Hazard Ratio ([2]; ip, 10 mg/kg): 2.02
- activity in clindamycin-induced colitis ([2]; 10 mg/kg): inactive

Compound: CCCc1c(OCCCOc2ccc3c(=O)cc(CCC(=O)O)oc3c2CCC)ccc(C(C)=O)c1O [Comparison 2, 7-[3-(4-acetyl-3-hydroxy-2-propylphenoxy)propoxy]-4-oxo-8-propyl-4H-1-benzopyran-2-propanoic acid, reference compound]
- Hazard Ratio ([2]; 13 mg/kg oral, in 0.15 ml water, >1.0 = prolongs survival vs. vehicle): 1.68
- activity in clindamycin-induced colitis ([2]; 10 mg/kg): inactive

Compound: O=C1CCN(c2ccccc2)N1 [phenidone, reference compound]
- activity in reducing myeloperoxidase of the rat colon ([1]; 100 and 200 mg/kg (FIG. 2)): active

Compound: O=C(O)c1cc(/N=N/c2ccc(S(=O)(=O)Nc3ccccn3)cc2)ccc1O [sulfasalazine, reference compound]
- water transport in the colon (guinea pig colon; 100 mg/kg, carrageenan-diseased animals (FIG. 4)): restored the water transport in the colon of the diseased animals from a net secretory level to a level about that of the control animals
